Laboratory results taken from patent publication US7012098B2, “Inhibitors of inducible nitric oxide synthase for chemoprevention and treatment of cancers” (Pharmacia Corporation, priority 2001, dated 2006).
Where a name gives a salt, the structure may show the parent alone. Read-outs that look alike come from different tables or passages of the source.

Tests used:
AOM-induced colonic ACF = test: Chemopreventive effects in rats with azoxymethane-induced aberrant crypt foci; assay type: in vivo, male F344 rats; conditions: for Foci containing 1 Crypt / Foci containing 2 Crypt / Foci containing 3 Crypt / Foci containing ≧4 Crypts / Total ACF incidence: AOM-treated male F344 rats, Mean ± SEM
Text: In Vivo Assay of Chemopreventive Effects of Therapeutic Compounds in Rats with Azoxymethane-induced Aberrant Crypt Foci
Azoxymethane (AOM) (CAS:25843-45-2) was purchased from Ash Stevens (Detroit, Mich.). iNOS and COX-2 selective inhibitors were provided by Pharmacia, (St. Louis, […].). Sulindac, a non-selective inhibitor of COX-isoforms and a known inhibitor of colon carcinogenesis, was supplied by the Chemoprevention Branch of the National Cancer Institute (Bethesda, Md.). Weanling male F344 rats were purchased from Charles River Breeding Laboratories (Kingston, N.Y.). All ingredients of the semipurified diet were obtained from Dyets Inc., (Bethlehem, Pa.) and were stored at 4° C. until the experimental diets were prepared. The rats were held in quarantine for 1 week and had access to modified AIN-76A semipurified control diet (Reddy et al., Cancer Res. 50: 2562-2568, 1990, which is herein incorporated by reference.). They were randomly distributed into various dietary groups and were transferred to an animal holding room where they were housed, three rats to a plastic cage, under controlled conditions of a 12-h light/12-h dark cycle, 50% relative humidity and 21° C. room temperature. Experimental diets were prepared by mixing chemopreventive agents with modified AIN-76A control diet.
To quantify aberrant crypt foci, after a minimum of 24 h in buffered formalin, the colons were cut into 2-cm segments starting at the anus; for the next 5-10 min they were placed in a Petri dish containing 0.2% methylene blue in Krebs Ringer solution. They were then placed, mucosal side up, on a microscope slide and observed through a light microscope. Aberrant crypt foci were recorded according to standard procedures that are being used routinely in our laboratory (Rao et al., Carcinogenesis 21: 617-21, 2000; Rao et al., Cancer Res. 53:4182-88, 1993, which are herein incorporated by reference.). […] The parameters used to assess the aberrant crypts were their occurrence and multiplicity. Crypt multiplicity was determined as the number of crypts in each focus and categorized as containing up to 3, or 4 or more aberrant crypts/focus.

COX-2 = molecular target: T1, COX-2 (Rattus norvegicus, UniProt P35355); test: Colonic mucosal COX-2 activity after dietary treatment; assay type: in vivo, male F344 rats; conditions: 100 ppm in diet; AOM-treated rats, colonic mucosa; Mean ± SEM
T1 sequence (P35355 18-604): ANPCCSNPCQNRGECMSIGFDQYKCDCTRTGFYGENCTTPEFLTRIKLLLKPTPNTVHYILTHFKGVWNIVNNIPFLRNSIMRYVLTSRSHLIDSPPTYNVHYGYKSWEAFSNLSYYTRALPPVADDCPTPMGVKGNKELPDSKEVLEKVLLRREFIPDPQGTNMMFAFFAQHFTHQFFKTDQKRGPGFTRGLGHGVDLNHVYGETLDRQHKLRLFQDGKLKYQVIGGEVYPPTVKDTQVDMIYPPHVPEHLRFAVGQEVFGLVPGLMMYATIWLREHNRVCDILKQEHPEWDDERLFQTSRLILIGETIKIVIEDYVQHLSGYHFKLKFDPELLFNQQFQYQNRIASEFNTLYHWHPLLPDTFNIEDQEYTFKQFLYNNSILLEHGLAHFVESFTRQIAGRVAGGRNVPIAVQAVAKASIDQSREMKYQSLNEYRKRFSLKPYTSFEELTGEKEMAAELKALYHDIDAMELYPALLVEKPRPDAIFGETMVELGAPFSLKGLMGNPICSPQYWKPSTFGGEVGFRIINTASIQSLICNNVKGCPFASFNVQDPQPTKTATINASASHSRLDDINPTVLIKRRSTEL
Protocol: For determining COX-2 activity, proteins were preincubated with 50 μM of aspirin to block the activity of COX-1. After incubation at 37° C. for 15 min, the reaction was terminated by adding 40 μl of 0.2 M HCl. The COX-mediated metabolites of arachidonic acid were extracted with ethyl acetate (3×0.5 ml). The combined extracts were evaporated to dryness under N2, redissolved in chloroform, and subjected to thin layer chromatography on precoated TLC plastic plates (silica G 60, 20×20 cm, layer thickness 150 μm). […] The metabolites of ^14C-AA corresponding to PGE2, PGF2α, PGD2, 6-Keto PGF1α, and TXB2 were detected by their comigration (Rf-values) with authentic standards. The area of each metabolite was determined in a Bioscan System 200 image scanning counter (Bioscan Inc., Washington, D.C.) equipped with β-detector.
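For Plasma level in this document: plasma drug concentrations quantified by liquid chromatography with tandem mass spectrometry following solid phase extraction, reported as mean ± SEM.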
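For Plasma level of compound XI in this document: plasma drug concentrations quantified by liquid chromatography with tandem mass spectrometry following solid phase extraction, reported as mean ± SEM.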
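For absorption in this document: plasma drug concentrations quantified by liquid chromatography with tandem mass spectrometry following solid phase extraction, reported as mean ± SEM.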

**Q.** Which “Foci containing 1 Crypt” value (AOM-induced colonic ACF; 10 ppm in diet) does the source give for CC(=N)NCCCC[C@H](N)C(=O)Nc1nnn[nH]1 [compound XI, 2S-amino-6-[(1-iminoethyl)amino]-N-(1H-tetrazol-5-yl)hexanamide, hydrate, dihydrochloride] here?
**A.** 28.2 ± 1.8

**Q.** And the “Foci containing 2 Crypt” value (AOM-induced colonic ACF; 10 ppm in diet)?
**A.** 31.7 ± 2.7

**Q.** And the “Foci containing 3 Crypt” value (AOM-induced colonic ACF; 10 ppm in diet)?
**A.** 29.3 ± 2.3

**Q.** And the “Foci containing ≧4 Crypts” value (AOM-induced colonic ACF; 10 ppm in diet)?
**A.** 25.6 ± 1.8

**Q.** What about the “Total ACF incidence” value (AOM-induced colonic ACF; 10 ppm in diet) of the same compound?
**A.** 115 ± 4.8

**Q.** And the “Foci containing 1 Crypt” value (AOM-induced colonic ACF; 30 ppm in diet)?
**A.** 28.7 ± 2.9

**Q.** What about the “Foci containing 2 Crypt” value (AOM-induced colonic ACF; 30 ppm in diet) of the same compound?
**A.** 32.6 ± 1.8

**Q.** And the “Foci containing 3 Crypt” value (AOM-induced colonic ACF; 30 ppm in diet)?
**A.** 24.8 ± 1.7

**Q.** And the “Foci containing ≧4 Crypts” value (AOM-induced colonic ACF; 30 ppm in diet)?
**A.** 22 ± 2.7

**Q.** What about the “Total ACF incidence” value (AOM-induced colonic ACF; 30 ppm in diet) of the same compound?
**A.** 108 ± 5.5

**Q.** And the “Foci containing 1 Crypt” value (AOM-induced colonic ACF; 100 ppm in diet)?
**A.** 28.6 ± 2.2

**Q.** What about the “Foci containing 2 Crypt” value (AOM-induced colonic ACF; 100 ppm in diet) of the same compound?
**A.** 33.6 ± 2.1

**Q.** What about the “Foci containing 3 Crypt” value (AOM-induced colonic ACF; 100 ppm in diet) of the same compound?
**A.** 17.7 ± 1.1

**Q.** And the “Foci containing ≧4 Crypts” value (AOM-induced colonic ACF; 100 ppm in diet)?
**A.** 13.9 ± 1.1

**Q.** What about the “Total ACF incidence” value (AOM-induced colonic ACF; 100 ppm in diet) of the same compound?
**A.** 93.8 ± 4.2

**Q.** What about the “effect on AOM-induced total colonic ACF and multicrypt clusters of 4 or more crypts” value (AOM-induced colonic ACF; 100 ppm, compared to control diet) of the same compound?
**A.** suppressed

**Q.** What about the absorption (3 dose levels (10, 30, 100 ppm in diet)) of the same compound?
**A.** Dose-dependant

**Q.** What about the Plasma level (10 ppm in diet, Early, One week on diet, Mean ± SEM, hydrate, dihydrochloride) of the same compound?
**A.** 461 ± 15 ηg/mI

**Q.** What about the Plasma level (10 ppm in diet, Late, 9 weeks on diet, Mean ± SEM, hydrate, dihydrochloride) of the same compound?
**A.** 254 ± 13 ηg/mI

**Q.** What about the Plasma level (10 ppm in diet, Mid, 5 weeks on diet, Mean ± SEM, hydrate, dihydrochloride) of the same compound?
**A.** 341 ± 9.7 ηg/mI

**Q.** What about the “Plasma level of compound XI” value (30 ppm compound XI + 500 ppm Celecoxib in diet, Early, One week on diet) of the same compound?
**A.** 1240 ± 37 + ηg/mI

**Q.** What about the “Plasma level of compound XI” value (30 ppm compound XI + 500 ppm Celecoxib in diet, Late, 9 weeks on diet) of the same compound?
**A.** 788 ± 63 ηg/mI

**Q.** What about the “Plasma level of compound XI” value (30 ppm compound XI + 500 ppm Celecoxib in diet, Mid, 5 weeks on diet) of the same compound?
**A.** 901 ± 5.0 + ηg/mI

**Q.** And the Plasma level (30 ppm in diet, first of 3 time points)?
**A.** 1315 ηg/ml

**Q.** And the Plasma level (30 ppm in diet, second of 3 time points)?
**A.** 821 ηg/ml

**Q.** And the Plasma level (30 ppm in diet, third of 3 time points)?
**A.** 742 ηg/ml

**Q.** What about the “Plasma level of compound XI” value (100 ppm compound XI + 500 ppm Celecoxib in diet, Early, One week on diet) of the same compound?
**A.** 4370 ± 112 + ηg/mI

**Q.** And the “Plasma level of compound XI” value (100 ppm compound XI + 500 ppm Celecoxib in diet, Late, 9 weeks on diet)?
**A.** 2477 ± 204 + ηg/mI

**Q.** And the “Plasma level of compound XI” value (100 ppm compound XI + 500 ppm Celecoxib in diet, Mid, 5 weeks on diet)?
**A.** 3096 ± 344 + ηg/mI

**Q.** And the Plasma level (100 ppm in diet, Early, One week on diet, Mean ± SEM, hydrate, dihydrochloride)?
**A.** 4306 ± 146 ηg/mI

**Q.** And the Plasma level (100 ppm in diet, Late, 9 weeks on diet, Mean ± SEM, hydrate, dihydrochloride)?
**A.** 2639 ± 268 ηg/mI

**Q.** And the Plasma level (100 ppm in diet, Mid, 5 weeks on diet, Mean ± SEM, hydrate, dihydrochloride)?
**A.** 2811 ± 82 ηg/mI

**Q.** What about the “COX-Activity, COX-2” value (COX-2) of the same compound?
**A.** 1.8 ± 0.3 pmoles [^14C]-AA metabolized/m
